Data taken from patent publication US5554728A, “Lipid conjugates of therapeutic peptides and protease inhibitors” (priority 1991, dated 1996).
Like-named read-outs stand apart in the source and are kept apart here. Non-standard residues stand in square brackets, D forms with d. Residues, ends and D or L forms follow the SMILES beside them. *: point of attachment. d1Nal = N[C@H](Cc1cccc2ccccc12)C(=O)O; d2Nal = N[C@H](Cc1ccc2ccccc2c1)C(=O)O; Isobutyloxycarbonyl = CC(C)COC(=O)*; Hica(2S) = CC(C)C[C@H](O)C(=O)O; Pip = O=C(O)[C@@H]1CCCCN1

Tested on: HIV
Assay type: cell-based
Procedure: Assay For The Reduction of HIV Syncytia Formed In HT4-6C Cells
The syncytia reduction assay as described by Larder, B. et al., science 243:1731-1734(1989) was used to measure the antiviral effect of protease inhibitor. A Hela cell line, HT4-6C, expressing the human CD4 receptor on its surface was trypsinized with 0.25% trypsin for 5 min. Cells were centrifuged to remove the residual trypsin, and the cell pellet was resuspended in DMEM with 10% FCS. HeLa cells were plated in 96 well plate (1×10^5 cells/well) overnight. Cell cultures were infected with HIV (approx. 100 PFU/well) for one hour. The […] were then prepared in stock solutions, and were then two fold diluted in 2% DMEM with 0.5% methylcellulose. 100 μl of each diluted antiviral agent is added into each well of HIV infected cells. The treated cell cultures were incubated in 37° C. CO2 incubator for 24 hours. Plates of HIV-infected cell cultures were fixed with methanol and stained with 1% crystal violet for 10 min., the dye is rinsed off with tap water. Each plate is dried and syncytia were counted. The antiviral effect of protease inhibitor is calculated by 50% syncytia reduction.

[1] = antiviral effect calculated by 50% syncytia reduction, HIV-infected HT4-6C (HeLa, human CD4) cells, 24 hours incubation, read-out: IC50

| Structure (SMILES) | IC50 [1] | IC50 (24 h) |
| --- | --- | --- |
| CC(C)C(NC(=O)OC(C)(C)C)C(=O)NC(Cc1ccccc1)C(=O)OCC(O)C(O)COC(=O)C(Cc1ccccc1)NC(=O)C(NC(=O)OC(C)(C)C)C(C)C (stereo not drawn) [EXAMPLE 24, (Boc-Val-Phe-O--CH2 --CHOH)2] | 1000 nM |  |
| CC(C)(C)OC(=O)NC(CO)C(=O)NC(Cc1ccccc1)C(=O)OCC(O)C(O)COC(=O)C(Cc1ccccc1)NC(=O)C(CO)NC(=O)OC(C)(C)C (stereo not drawn) [EXAMPLE 25, (Boc-Ser-Phe-O--CH2 --CHOH)2] | 3000 nM |  |
| COC(=O)[C@@H]1CCCCN1C(=O)[C@@H](Cc1ccc2ccccc2c1)NC(=O)[C@H](C)NC(=O)[C@H](C)NC(C)=O [EXAMPLE 27-30, Ac-Ala-Ala-(D-b-Nal)-Pip-OMe] (Ac-AA[d2Nal][Pip]-OMe) |  | > 100000 nM |
| CC(C)COC(=O)N[C@H](Cc1ccccc1)C(=O)N[C@H](Cc1cccc2ccccc12)C(=O)N1CCCC[C@H]1C(=O)O[C@@H](CC(C)C)C(=O)N[C@H](C(N)=O)C(C)C [EXAMPLE 27-40, i-Boc-(D-Phe)-(D-a-Nal)-Pip-(a-(OH)-Leu)-Val-NH2] (Isobutyloxycarbonyl-[dF][d1Nal][Pip][Hica(2S)]V-NH2) |  | 10000 nM |
